According to paper PMC6469618 (Environmental Science and Pollution Research International, 2019):
“And” between values parts separate entries of the source, which are not always exact repeats. Identical values can stand only once.

Tests used:
[1] = tested on: water louse; conditions: naturalistic pond experiment; ref Lagesson et al. 2016; cited from earlier work
[2] = tested on: nine-spine stickleback (Pungitius pungitius); test: Study 2: uptake in muscle tissue of stickleback; conditions: for Start relative tissue concentration (Cb/Cw): 60 min after dosing
Source text: (§5) Nine-spine stickleback were collected using umbrella traps from ponds in Röbäck, Sweden, in July 2017. Fish were housed in a large, aerated, ground water flow-through tank (1500 L) until the start of the experiment. Fish were fed frozen chironomid larvae until satiation once daily. Water louse were collected using sweep nets from Djupsundsbäcken near Holmsund, Sweden, in January 2018. Water louse were kept in aerated containers with detritus (predominately alder leaf litter) until the start of the experiment.
(§6) Stickleback and water louse were exposed to 187 ng/L (nominal concentration) methylphenidate at two temperature treatments: 10 °C (in a climate chamber) and 20 °C (ambient room temperature). Both exposures were maintained at the same light cycle used in study 1. Organisms were exposed under static conditions using three replicate glass aquaria filled with 20 L water. The aquaria were equipped with an airstone and two ceramic clay pots for shelter in each temperature treatment. Fish were exposed in two tanks, while water louse were exposed separately in the remaining tank. Water from each tank was sampled at 0 min (immediately after dosing), 15 min, 30 min, 60 min, 4 h, 8 h, 24 h, 3 days, 5 days, 7 days, 9 days, 10 days, 11 days, 12 days, and 13 days. Three to six water louse and three to six fish were sampled at each of the following time points: 60 min, 4 h, 8 h, 24 h, 3 days, 5 days, 7 days, 9 days, 10 days, 11 days, 12 days, and 13 days. Fish were euthanized via cerebral concussion and spinal severance. Water quality measures of pH (Merck pH Universal Indicator Strips), dissolved oxygen, and temperature (YSI Pro DO Series) were verified in the exposure tanks on the final days of sampling. For the low (10 °C) and high (20 °C) temperature rooms, respectively, water temperature was (mean ± s.d.) 10.03 ± 0.32 °C and 17.07 ± 0.21 °C; dissolved oxygen was 14.40 ± 0.27 mg/L and 12.30 ± 0.30 mg/L; and there were no changes in pH (7 ± 0, for both temperatures).
(§7) Immediately after sampling, all water and organisms sampled were frozen at − 20 °C until further processing. Muscle tissue (mean ± s.d. 0.09 ± 0.02 g; range 0.02–0.13 g) was dissected from each stickleback by taking a section of the dorsal axial muscle. Water louse collected from each temperature treatment (10 °C and 20 °C) on each sampling day were pooled due to low sample weight before extracting whole-body tissue (0.05 ± 0.01 g; range 0.03–0.07 g). However, when enough tissue was available, multiple water louse samples were analysed. To each sample, 5 ng (50 μL) of the internal standard methylphenidate-D9 (Cerilliant, USA; in methanol, HPLC-grade, Fisher Chemical, Loughborough, UK) was added. For both stickleback and water louse, tissues were extracted using 1.5 ml acetonitrile (HPLC-grade, Fisher Chemical, Loughborough, UK) repeated twice (based on the method used by Brodin et al. [2013]; McCallum et al. [2017], [2018]). The samples were homogenized and extracted for 4 min at 42,000 oscillations per minute (Mini Beadbeater, Biospec. Bartlesville, USA) with zirconium beads and then centrifuged the samples at 17,500 g for 10 min (Beckman Coulter Microfuge 22R Centrifuge). This protocol was used for both eluent mixtures, and the supernatants were combined. The combined supernatants were evaporated to 20 μl and the sample was reconstituted in 100 μl methanol (HPLC-grade, Fisher Chemical, Loughborough, UK). […]

[3] = tested on: water louse (Asellus aquaticus); test: Study 2: uptake in whole-body tissue of water louse; conditions: for Start relative tissue concentration (Cb/Cw): 60 min after dosing; for End relative tissue concentration (Cb/Cw): final sampling day
Source text: as §5, §6
(§8) Immediately after sampling, all water and organisms sampled were frozen at − 20 °C until further processing. Muscle tissue (mean ± s.d. 0.09 ± 0.02 g; range 0.02–0.13 g) was dissected from each stickleback by taking a section of the dorsal axial muscle. Water louse collected from each temperature treatment (10 °C and 20 °C) on each sampling day were pooled due to low sample weight before extracting whole-body tissue (0.05 ± 0.01 g; range 0.03–0.07 g). However, when enough tissue was available, multiple water louse samples were analysed. To each sample, 5 ng (50 μL) of the internal standard methylphenidate-D9 (Cerilliant, USA; in methanol, HPLC-grade, Fisher Chemical, Loughborough, UK) was added. For both stickleback and water louse, tissues were extracted using 1.5 ml acetonitrile (HPLC-grade, Fisher Chemical, Loughborough, UK) repeated twice (based on the method used by Brodin et al. [2013]; McCallum et al. [2017], [2018]). The samples were homogenized and extracted for 4 min at 42,000 oscillations per minute (Mini Beadbeater, Biospec. Bartlesville, USA) with zirconium beads and then centrifuged the samples at 17,500 g for 10 min (Beckman Coulter Microfuge 22R Centrifuge). This protocol was used for both eluent mixtures, and the supernatants were combined. The combined supernatants were evaporated to 20 μl and the sample was reconstituted in 100 μl methanol (HPLC-grade, Fisher Chemical, Loughborough, UK).

[4] = tested on: guppies (Poecilia reticulata); design: method as in De Serrano et al. 2016; conditions: adult guppies exposed to 250 ng/L; ref De Serrano et al. 2016; cited from earlier work
[5] = tested on: zebrafish (Danio rerio); design: method as in Endres et al. 2017; conditions: stressed zebrafish; environmentally relevant concentrations; ref Endres et al. 2017; cited from earlier work
[6] = Study 1: static water only, stability of methylphenidate and breakdown to ritalinic acid; conditions: for Water concentration, measured end: final sampling day; for Water concentration, measured end / Water concentration, measured start: nominal 1870 ng/L methylphenidate, Ntanks = 1; for Water concentration, measured start: immediately after dosing
Protocol: A total of 1870 ng/L (nominal concentration) of methylphenidate (1 mL of the stock solution) was added to a glass aquarium filled with 20 L of ground water. The tank was aerated and kept at 20 °C (ambient room temperature). Water was sampled at 0 min (immediately after dosing), 5 min, 15 min, 45 min, 90 min, 4 h, 10 h, 24 h, 2 days, 3 days, 4 days, 5 days, 7 days, and 12 days. This exposure was conducted in a windowless room with a light-dark cycle of 13L:11D.
(§1) Fifty microlitres of methylphenidate-D9 (500 ng/L) was added to 10-ml aliquots of the aqueous samples, filtered (0.45 μm, Filtropur S, Sarstedt, N~umbrecht, Germany), and acidified with 10 μL formic acid (0.1% v/v, Merck KGaA, Darmstadt, Germany) to a pH of 2.7.
(§2) All of the samples were injected to an EQuan MAX Plus LC-Quantiva triple quadrupole MS/MS (Thermo Scientific, San Jose, USA). A 10-μL injection volume was used for stickleback/louse extracts and the calibration curve. For the aqueous samples, and the corresponding calibration curve, a 1-mL injection volume was used and preconcentrated the analytes on an online-connected Oasis HLB column (2.1 × 20 mm, 15 μm Waters, Milford, USA) using column switching (70 s transfer time and 180 s elution time). Milli-Q ultra-pure water (Millipore) and methanol (Lichrosolv, Hypergrade, Merck) were used as mobile phases (both containing 0.1% formic acid (Suprapur, Merck KGaA), v/v) together with Hypersil GOLD columns (Thermo Scientific) as stationary phases: guard (20 × 2.1 mm, 3 μm) and analytical (50 × 2.1 mm, 3 μm). The flow rate was kept at 350 μL/min, and we used two linear gradients. The gradient for the stickleback/louse extracts were as follows: 0–2 min, methanol 2%; 2–4 min, methanol 2–100%; 4–6 min, methanol 100%; and 6.01–7.5 min, methanol 2%. For the aqueous samples, the gradient was 0–2 min, methanol 2%; 2–4.75 min, methanol 2–100%; 4.75–7 min, methanol 100%; and 7.01–9 min, methanol 2%.
(§3) Positive polarity and a heated electrospray at 338 °C, an ion transfer tube temperature at 350 °C, and a spray voltage at 3.5 kV were used. […] See supplementary materials for QA/QC data.
(§4) All analyses were conducted in R (version: 3.5.0; R Core Team [2018]). […] Welch’s two-sample t tests were used to analyse whether methylphenidate degradation in the water column was impacted by temperature treatment. […] Degradation/formation rate, kd, is the slope given by a linear regression analysis. […] Relative tissue uptake was calculated at each sampling point.

[7] = in vivo; conditions: water louse (Asellus aquaticus), 187 ng/L
Source text: as §5, §6, §8

[8] = tested on: zebrafish; design: method as in Levin et al. 2011; conditions: zebrafish exposed to 50 mg/L as embryos; ref Levin et al. 2011; cited from earlier work
[9] = tested on: human; conditions: oral administration, ref Gualtieri et al. 1982, Doerge et al. 2000; cited from earlier work
[10] = tested on: humans; conditions: standard dose (18 mg); ref Faraj et al. 1974; Concerta Prescribing Information 2013; cited from earlier work
[11] = in vivo; conditions: nine-spine stickleback (Pungitius pungitius), 187 ng/L
Source text: as §5, §6, §7

[12] = Study 2: static water + biota, concentrations in the water column; conditions: for Water concentration, measured end / Water concentration, measured start / half-life at 187 ng/L / Formation time of ritalinic acid in water: static + biota; for Water concentration, measured end: final sampling day; for Water concentration, measured end / Water concentration, measured start: nominal 187 ng/L methylphenidate, mean ± s.d.; for Water concentration, measured start: immediately after dosing, Ntanks = 3; for half-life at 187 ng/L: aquarium water with biota (stickleback or water louse), pH 7, Half-life of methylphenidate in water
Protocol: Stickleback and water louse were exposed to 187 ng/L (nominal concentration) methylphenidate at two temperature treatments: 10 °C (in a climate chamber) and 20 °C (ambient room temperature). Both exposures were maintained at the same light cycle used in study 1. Organisms were exposed under static conditions using three replicate glass aquaria filled with 20 L water. The aquaria were equipped with an airstone and two ceramic clay pots for shelter in each temperature treatment. Fish were exposed in two tanks, while water louse were exposed separately in the remaining tank. Water from each tank was sampled at 0 min (immediately after dosing), 15 min, 30 min, 60 min, 4 h, 8 h, 24 h, 3 days, 5 days, 7 days, 9 days, 10 days, 11 days, 12 days, and 13 days. Three to six water louse and three to six fish were sampled at each of the following time points: 60 min, 4 h, 8 h, 24 h, 3 days, 5 days, 7 days, 9 days, 10 days, 11 days, 12 days, and 13 days. Fish were euthanized via cerebral concussion and spinal severance. Water quality measures of pH (Merck pH Universal Indicator Strips), dissolved oxygen, and temperature (YSI Pro DO Series) were verified in the exposure tanks on the final days of sampling.
as §1, §2, §3, §4

[13] = ref SciFinder; cited from earlier work
[14] = tested on: rhesus macaque; conditions: oral administration, ref Gualtieri et al. 1982, Doerge et al. 2000; cited from earlier work

## OCCOCCN1CCN(C(c2ccccc2)c2ccc(Cl)cc2)CC1 (stereo not drawn) [hydroxyzine]
[1]
  Bioconcentration in water louse compared to European perch (Perca fluviatilis): higher levels

## COC(=O)C(c1ccccc1)C1CCCCN1 (stereo not drawn) [methylphenidate]
[2]
  Time of highest tissue concentration (first sampling point): 60 min
  Time of highest tissue concentrations: ≤ 4 h
[2]; 10 °C
  Start relative tissue concentration (Cb/Cw): 1.2 ± 0.5 (0.7–2.1)
[2]; 20 °C
  Start relative tissue concentration (Cb/Cw): 0.5 ± 0.1 (0.4–0.7)
[3]; 10 °C
  Start relative tissue concentration (Cb/Cw): 0.6
  End relative tissue concentration (Cb/Cw): 7.5 ± 3.2 (4.0–10.4)
[3]; 20 °C
  Start relative tissue concentration (Cb/Cw): 1.1
  End relative tissue concentration (Cb/Cw): 50.0
[3]; depending on temperature
  Time of peak tissue concentration: ~ 6 days and 5 to 7 days and 5–7 days
[4]
  Effect on anxiety behaviours: Reductions in anxiety behaviours
[5]
  Effect on anxiety-like behaviours (e.g., freezing, hiding): inhibited anxiety-like behaviours
[6]; 20 °C, static water only
  Water concentration, measured end: 7 ng/L
  Water concentration, measured start: 1660 ng/L
[6]; ground water in an aerated glass aquarium, no biota
  half-life at 1870 ng/L: 37 h
[6]; study not given
  Time that concentrations stay above ~ 180 ng/L in the water column: up to 2 days
[7]
  concentration at 60 min: 0.2 ng/g
  concentration at 13 days: 0.1 ng/g
[8]
  Effect on anxiety behaviours: Reductions in anxiety behaviours
[9]
  Time of peak in plasma: 1 to 4 h
[10]
  Share of dose excreted as ritalinic acid: up to 80%
[11]
  concentration at 60 min: 0.18 ng/g
[12]; 10 °C
  Water concentration, measured end: 28 ± 4 ng/L
  Water concentration, measured start: 192 ± 28 ng/L
  half-life at 187 ng/L: 122 h
[12]; 20 °C
  Water concentration, measured end: 2 ± 1 ng/L
  Water concentration, measured start: 205 ± 19 ng/L
  half-life at 187 ng/L: 47 h
[13]
  pKa: 9.5
[14]
  Time of peak in plasma: 1 to 4 h

## O=C1Nc2ccc(Cl)cc2C(c2ccccc2)=NC1O (stereo not drawn) [oxazepam]
[1]
  Bioconcentration in water louse compared to European perch (Perca fluviatilis): higher levels

## O=C(O)C(c1ccccc1)C1CCCCN1 (stereo not drawn) [ritalinic acid, α-phenyl-2-piperidine acetic acid]
[6]; 20 °C, static water only
  Formation time of ritalinic acid in water: 79 h
  Water concentration, measured end: 1606 ng/L
  Water concentration, measured start: 387 ng/L
[6]; water without biota, depending on temperature
  Time after which ritalinic acid concentration surpasses methylphenidate in water: 48 to 100 h
[12]; 10 °C
  Formation time of ritalinic acid in water: 62 h
  Water concentration, measured end: 202 ± 12 ng/L
  Water concentration, measured start: 11 ± 10 ng/L
[12]; 20 °C
  Formation time of ritalinic acid in water: 65 h
  Water concentration, measured end: 231 ± 12 ng/L
  Water concentration, measured start: 8 ± 2 ng/L
[12]; water with biota, depending on temperature
  Time after which ritalinic acid concentration surpasses methylphenidate in water: 48 to 100 h
